# Measured values from patent US20160220569A1, “CDK4/6 Inhibitor Dosage Formulations For The Protection Of Hematopoietic Stem And Progenitor Cells During Chemotherapy” (G1 Therapeutics, Inc., priority 2015, published 2016).
# Columns and labels:
# [1] = 3-compartment model pharmacokinetic analysis, Cohorts 5 and 6; format: in vivo, human; conditions: for half-life: read-out: γ phase half-life averaged (converted)
# Text: The concentration-time profile is represented by a tri-exponential equation similar to the following: […]
# Where A, B, and C are the ‘macroconstants’ which are a function of the dose, volume of distribution and the ‘microconstants’ (K12, K21, K13, K31, and K10).
# Five of these parameters are rate constants and the 6th is the volume of distribution of the central compartment (V1).
# [2] = Nonclinical IV and oral pharmacokinetics in rats; format: in vivo; conditions: rat, plasma
# Text: Systemic exposure in rats as measured by Cmax and AUClast was dose-dependent.
# [3] = PK comparison of Compound 1 clinical data with literature PK of palbociclib; format: in vivo, human
# mouse splenocytes = assay: Interferon gamma from splenocytes stimulated ex vivo with anti-CD3/antiCD28 after 5FU; format: in vivo, C57BL/6 Mice; conditions: mice pretreated with 100 mg/kg Compound 1, 5FU 50 mg/kg
# Text: FIG. 59 is a bar graph of interferon gamma concentration (pg/ml) at day 2 and 7 for mouse splenocytes that were isolated and stimulated ex vivo with anti-CD3/antiCD28.
# [4] = Cohort 5, 96 mg/m^2, 3-compartment primary parameter, subjects 1-6, Mean, Median, mean
# [5] = human, plasma, 96 mg/m2, 96 mg/m^2 IV
compound,measurement,setting,value
"CN1CCN(c2ccc(Nc3ncc4cc5n(c4n3)C3(CCCCC3)CNC5=O)nc2)CC1 [Compound 1, 2′-((5-(4-methylpiperazin-1-yl)pyridin-2-yl)amino)-7′,8′-dihydro-6′H-spiro[cyclohexane-1,9′-pyrazino[1′,2′:1,5]pyrrolo[2,3-d]pyrimidin]-6′-one]",Beta,[1]; [4],0.388 h⁻¹
same,Gamma,[1]; [4],0.0502 h⁻¹
same,K31,[1]; [4],0.0692 h⁻¹
same,Cmax,"[1]; both sexes, human, plasma, intravenous, 96 mg/m2, Cohort 5, 96 mg/m^2, 3-compartment secondary (derived) parameter, six subjects, Mean, Median, read-out: Cmax",991 ng/mL
same,half-life,"[1]; both sexes, human, plasma, intravenous, 96 mg/m2, 96 mg/m^2, 3-compartment model, mean",14.2 h
same,half-life,"[1]; both, human, plasma, intravenous, […]2",14 h
same,half-life,"[2]; both sexes, rats, after IV administration",~4 h
same,bioavailability,[2]; oral,60 to 70%
same,CL/F,[3]; 96 mg/m^2 IV,121 L/h
same,accumulation in blood plasma on consecutive days,[3]; Compound 1,does not show accumulation
same,CL/F,[3]; […]^2 IV,126 L/h
same,AUC(0-inf),[3]; [5],1380 ng·h/mL
same,Cmax,[3]; [5],932 ng/mL
same,half-life,[3]; [5],8.6 h
same,half-life,"[3]; human, plasma, iv, […]2",7.9 h
same,interferon gamma levels,mouse splenocytes,did not decrease significantly
